Our source for the EC50 values is US12252524B2, “GIP/GLP1 co-agonist compounds” (Eli Lilly and Company, priority 2018, dated 2025).

Square brackets hold non-standard residues; d marks the D form. Peptide text beside a SMILES is read from it. αMePhe(2-F) = C[C@](N)(Cc1ccccc1F)C(=O)O; αMeL = CC(C)C[C@](C)(N)C(=O)O; Orn = NCCC[C@H](N)C(=O)O; Aib = CC(C)(N)C(=O)O

Assay [1] deals with human GLP-1 receptor (GLP-1R) (Homo sapiens, UniProt P43220). As to the kind of experiment: cAMP pharmacological functional assay in presence of casein, hGLP-1R. The assay is classed as cell-based. The note with it: HEK293 cells expressing hGLP-1R, 0.1% Casein, geometric mean; read-out: hGLP1R cAMP Rel EC50 nM (SEM, n).
In assay [2] the target is T1, gastric inhibitory peptide receptor (GIPR) (Homo sapiens, UniProt P48546).
T1 sequence (P48546 22-466): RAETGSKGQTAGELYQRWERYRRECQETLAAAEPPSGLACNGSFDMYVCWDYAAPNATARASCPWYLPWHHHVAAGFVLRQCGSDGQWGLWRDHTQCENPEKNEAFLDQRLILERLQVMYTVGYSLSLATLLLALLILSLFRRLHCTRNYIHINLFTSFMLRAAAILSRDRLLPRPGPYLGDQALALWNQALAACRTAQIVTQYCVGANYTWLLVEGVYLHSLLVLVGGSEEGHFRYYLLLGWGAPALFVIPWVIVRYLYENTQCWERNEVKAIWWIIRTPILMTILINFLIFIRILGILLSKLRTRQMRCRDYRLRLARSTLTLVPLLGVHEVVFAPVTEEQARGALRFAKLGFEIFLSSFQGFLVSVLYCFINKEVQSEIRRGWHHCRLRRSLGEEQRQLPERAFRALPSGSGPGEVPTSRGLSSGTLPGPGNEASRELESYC
The assay is described as follows: cAMP pharmacological functional assay in presence of casein, hGIPR. The assay is classed as cell-based. To be noted: HEK293 cells expressing hGIPR, 0.1% Casein, geometric mean; read-out: hGIPR cAMP Rel EC50 nM (SEM, n).

Chain of human GLP-1 receptor (GLP-1R) (P43220 24-463): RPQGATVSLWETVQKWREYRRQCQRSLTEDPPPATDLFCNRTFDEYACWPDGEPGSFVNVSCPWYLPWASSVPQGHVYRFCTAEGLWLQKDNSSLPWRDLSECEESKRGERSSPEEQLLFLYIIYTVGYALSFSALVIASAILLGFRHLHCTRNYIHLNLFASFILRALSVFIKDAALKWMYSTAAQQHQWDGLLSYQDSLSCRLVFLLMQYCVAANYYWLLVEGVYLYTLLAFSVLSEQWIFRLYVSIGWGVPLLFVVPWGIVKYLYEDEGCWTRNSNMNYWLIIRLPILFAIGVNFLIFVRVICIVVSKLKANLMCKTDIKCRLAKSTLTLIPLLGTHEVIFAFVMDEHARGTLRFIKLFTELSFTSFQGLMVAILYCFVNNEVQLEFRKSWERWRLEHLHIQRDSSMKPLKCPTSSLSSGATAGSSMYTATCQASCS

On to `CC[C@H](C)[C@H](NC(=O)[C@H](CC(C)C)NC(=O)[C@H](Cc1ccc(O)cc1)NC(=O)[C@@H](CCC(=O)O)NC(=O)[C@@H](NC(=O)[C@H](Cc1ccccc1)NC(=O)[C@H](CCC(=O)O)NC(=O)C(C)(C)NC(=O)[C@H](CCC(N)=O)NC(=O)[C@H](C)NC(=O)[C@H](CCC(N)=O)NC(=O)[C@H](CCC(=O)O)NC(=O)[C@H](CC(=O)O)NC(=O)[C@H](CC(C)C)NC(=O)[C@](C)(CC(C)C)NC(=O)[C@@H](NC(=O)[C@H](CO)NC(=O)[C@H](Cc1ccc(O)cc1)NC(=O)[C@H](CC(=O)O)NC(=O)[C@H](CO)NC(=O)[C@@H](NC(=O)[C@](C)(Cc1ccccc1F)NC(=O)[C@@H](NC(=O)CNC(=O)[C@H](CCC(=O)O)NC(=O)C(C)(C)NC(=O)[C@@H](N)Cc1ccc(O)cc1)[C@@H](C)O)[C@@H](C)O)[C@@H](C)CC)[C@@H](C)CC)C(=O)N[C@@H](CCC(=O)O)C(=O)NCC(=O)NCC(=O)N1CCC[C@H]1C(=O)N[C@@H](CO)C(=O)N[C@@H](CO)C(=O)NCC(=O)N[C@@H](C)C(=O)N1CCC[C@H]1C(=O)N1CCC[C@H]1C(=O)N1CCC[C@H]1C(=O)N[C@@H](CO)C(N)=O` [Example 277] (H-Y[Aib]EGT[αMePhe(2-F)]TSDYSI[αMeL]LDEQAQ[Aib]EFI[dE]YLIEGGPSSGAPPPS-NH2; N-terminus assumed), for which the values for the EC50 in assay [1] and in assay [2] were 0.133 nM and 0.0554 nM, respectively.
For `CC[C@H](C)[C@H](NC(=O)[C@H](CC(C)C)NC(=O)[C@H](Cc1ccc(O)cc1)NC(=O)[C@@H](CCC(=O)O)NC(=O)[C@@H](NC(=O)[C@H](Cc1ccccc1)NC(=O)[C@H](CCC(=O)O)NC(=O)C(C)(C)NC(=O)[C@H](CCC(N)=O)NC(=O)[C@H](C)NC(=O)[C@H](CCCCN)NC(=O)[C@H](CCC(=O)O)NC(=O)[C@H](CC(=O)O)NC(=O)[C@H](CC(C)C)NC(=O)[C@](C)(CC(C)C)NC(=O)[C@@H](NC(=O)[C@H](CO)NC(=O)[C@H](Cc1ccc(O)cc1)NC(=O)[C@H](CC(=O)O)NC(=O)[C@H](CO)NC(=O)[C@@H](NC(=O)[C@](C)(Cc1ccccc1F)NC(=O)[C@@H](NC(=O)CNC(=O)[C@H](CCC(=O)O)NC(=O)C(C)(C)NC(=O)[C@@H](N)Cc1ccc(O)cc1)[C@@H](C)O)[C@@H](C)O)[C@@H](C)CC)[C@@H](C)CC)C(=O)N[C@@H](CCC(=O)O)C(=O)NCC(=O)NCC(=O)N1CCC[C@H]1C(=O)N[C@@H](CO)C(=O)N[C@@H](CO)C(=O)NCC(=O)N[C@@H](C)C(=O)N1CCC[C@H]1C(=O)N1CCC[C@H]1C(=O)N1CCC[C@H]1C(=O)N[C@@H](CO)C(=O)N[C@@H](CS)C(N)=O` [Example 278] (H-Y[Aib]EGT[αMePhe(2-F)]TSDYSI[αMeL]LDEKAQ[Aib]EFI[dE]YLIEGGPSSGAPPPSC-NH2; N-terminus assumed), in that order: 0.123 nM and 0.293 nM.
In the case of `CC[C@H](C)[C@H](NC(=O)[C@H](CC(C)C)NC(=O)[C@H](Cc1ccc(O)cc1)NC(=O)[C@@H](CCC(=O)O)NC(=O)[C@@H](NC(=O)[C@H](Cc1ccccc1)NC(=O)[C@H](CCC(=O)O)NC(=O)C(C)(C)NC(=O)[C@H](CCC(N)=O)NC(=O)[C@H](C)NC(=O)[C@H](CCC(N)=O)NC(=O)[C@H](CCC(=O)O)NC(=O)[C@H](CC(=O)O)NC(=O)[C@H](CC(C)C)NC(=O)[C@](C)(CC(C)C)NC(=O)[C@@H](NC(=O)[C@H](CO)NC(=O)[C@H](Cc1ccc(O)cc1)NC(=O)[C@H](CC(=O)O)NC(=O)[C@H](CO)NC(=O)[C@@H](NC(=O)[C@](C)(Cc1ccccc1F)NC(=O)[C@@H](NC(=O)CNC(=O)[C@H](CCC(=O)O)NC(=O)C(C)(C)NC(=O)[C@@H](N)Cc1ccc(O)cc1)[C@@H](C)O)[C@@H](C)O)[C@@H](C)CC)[C@@H](C)CC)C(=O)N[C@@H](CCC(=O)O)C(=O)NCC(=O)NCC(=O)N1CCC[C@H]1C(=O)N[C@@H](CO)C(=O)N[C@@H](CO)C(=O)NCC(=O)N[C@@H](C)C(=O)N1CCC[C@H]1C(=O)N1CCC[C@H]1C(=O)N1CCC[C@H]1C(=O)N[C@@H](CO)C(=O)N[C@@H](CS)C(N)=O` [Example 279] (H-Y[Aib]EGT[αMePhe(2-F)]TSDYSI[αMeL]LDEQAQ[Aib]EFI[dE]YLIEGGPSSGAPPPSC-NH2), the EC50 is 0.11 nM in assay [1] and 0.564 nM in assay [2].
For `CC[C@H](C)[C@H](NC(=O)[C@H](CC(C)C)NC(=O)[C@H](Cc1ccc(O)cc1)NC(=O)[C@@H](CCC(=O)O)NC(=O)[C@@H](NC(=O)[C@H](Cc1ccccc1)NC(=O)[C@H](CCC(=O)O)NC(=O)C(C)(C)NC(=O)[C@H](CCC(N)=O)NC(=O)[C@H](C)NC(=O)[C@H](CCCCN)NC(=O)[C@H](CCCN)NC(=O)[C@H](CC(=O)O)NC(=O)[C@H](CC(C)C)NC(=O)[C@](C)(CC(C)C)NC(=O)[C@@H](NC(=O)[C@H](CO)NC(=O)[C@H](Cc1ccc(O)cc1)NC(=O)[C@H](CC(=O)O)NC(=O)[C@H](CO)NC(=O)[C@@H](NC(=O)[C@](C)(Cc1ccccc1F)NC(=O)[C@@H](NC(=O)CNC(=O)[C@H](CCC(=O)O)NC(=O)C(C)(C)NC(=O)[C@@H](N)Cc1ccc(O)cc1)[C@@H](C)O)[C@@H](C)O)[C@@H](C)CC)[C@@H](C)CC)C(=O)N[C@@H](CCC(=O)O)C(=O)NCC(=O)NCC(=O)N1CCC[C@H]1C(=O)N[C@@H](CO)C(=O)N[C@@H](CO)C(=O)NCC(=O)N[C@@H](C)C(=O)N1CCC[C@H]1C(=O)N1CCC[C@H]1C(=O)N1CCC[C@H]1C(=O)N[C@@H](CO)C(N)=O` [Example 280] (H-Y[Aib]EGT[αMePhe(2-F)]TSDYSI[αMeL]LD[Orn]KAQ[Aib]EFI[dE]YLIEGGPSSGAPPPS-NH2), in that order: 0.0767 nM and 0.204 nM.
On to `CC[C@H](C)[C@H](NC(=O)[C@H](CC(C)C)NC(=O)[C@H](Cc1ccc(O)cc1)NC(=O)[C@@H](CCC(=O)O)NC(=O)[C@@H](NC(=O)[C@H](Cc1ccccc1)NC(=O)[C@H](CCC(=O)O)NC(=O)C(C)(C)NC(=O)[C@H](CCC(N)=O)NC(=O)[C@H](C)NC(=O)[C@H](CCC(N)=O)NC(=O)[C@H](CCCN)NC(=O)[C@H](CC(=O)O)NC(=O)[C@H](CC(C)C)NC(=O)[C@](C)(CC(C)C)NC(=O)[C@@H](NC(=O)[C@H](CO)NC(=O)[C@H](Cc1ccc(O)cc1)NC(=O)[C@H](CC(=O)O)NC(=O)[C@H](CO)NC(=O)[C@@H](NC(=O)[C@](C)(Cc1ccccc1F)NC(=O)[C@@H](NC(=O)CNC(=O)[C@H](CCC(=O)O)NC(=O)C(C)(C)NC(=O)[C@@H](N)Cc1ccc(O)cc1)[C@@H](C)O)[C@@H](C)O)[C@@H](C)CC)[C@@H](C)CC)C(=O)N[C@@H](CCC(=O)O)C(=O)NCC(=O)NCC(=O)N1CCC[C@H]1C(=O)N[C@@H](CO)C(=O)N[C@@H](CO)C(=O)NCC(=O)N[C@@H](C)C(=O)N1CCC[C@H]1C(=O)N1CCC[C@H]1C(=O)N1CCC[C@H]1C(=O)N[C@@H](CO)C(N)=O` [Example 281] (H-Y[Aib]EGT[αMePhe(2-F)]TSDYSI[αMeL]LD[Orn]QAQ[Aib]EFI[dE]YLIEGGPSSGAPPPS-NH2), for which the EC50 in assay [1] is 0.16 nM; in assay [2] it was 0.166 nM.
In the case of `CC[C@H](C)[C@H](NC(=O)[C@H](CC(C)C)NC(=O)[C@H](Cc1ccc(O)cc1)NC(=O)[C@@H](CCC(=O)O)NC(=O)[C@@H](NC(=O)[C@H](Cc1ccccc1)NC(=O)[C@H](CCC(=O)O)NC(=O)C(C)(C)NC(=O)[C@H](CCC(N)=O)NC(=O)[C@H](C)NC(=O)[C@H](CCCCN)NC(=O)[C@H](CCCN)NC(=O)[C@H](CC(=O)O)NC(=O)[C@H](CC(C)C)NC(=O)[C@](C)(CC(C)C)NC(=O)[C@@H](NC(=O)[C@H](CO)NC(=O)[C@H](Cc1ccc(O)cc1)NC(=O)[C@H](CC(=O)O)NC(=O)[C@H](CO)NC(=O)[C@@H](NC(=O)[C@](C)(Cc1ccccc1F)NC(=O)[C@@H](NC(=O)CNC(=O)[C@H](CCC(=O)O)NC(=O)C(C)(C)NC(=O)[C@@H](N)Cc1ccc(O)cc1)[C@@H](C)O)[C@@H](C)O)[C@@H](C)CC)[C@@H](C)CC)C(=O)N[C@@H](CCC(=O)O)C(=O)NCC(=O)NCC(=O)N1CCC[C@H]1C(=O)N[C@@H](CO)C(=O)N[C@@H](CO)C(=O)NCC(=O)N[C@@H](C)C(=O)N1CCC[C@H]1C(=O)N1CCC[C@H]1C(=O)N1CCC[C@H]1C(=O)N[C@@H](CO)C(=O)N[C@@H](CS)C(N)=O` [Example 282] (H-Y[Aib]EGT[αMePhe(2-F)]TSDYSI[αMeL]LD[Orn]KAQ[Aib]EFI[dE]YLIEGGPSSGAPPPSC-NH2), the figures for the EC50 in assay [1] and in assay [2] were 0.247 nM and 0.323 nM, respectively.
For `CC[C@H](C)[C@H](NC(=O)[C@H](CC(C)C)NC(=O)[C@H](Cc1ccc(O)cc1)NC(=O)[C@@H](CCC(=O)O)NC(=O)[C@@H](NC(=O)[C@H](Cc1ccccc1)NC(=O)[C@H](CCC(=O)O)NC(=O)C(C)(C)NC(=O)[C@H](CCC(N)=O)NC(=O)[C@H](C)NC(=O)[C@H](CCC(N)=O)NC(=O)[C@H](CCCN)NC(=O)[C@H](CC(=O)O)NC(=O)[C@H](CC(C)C)NC(=O)[C@](C)(CC(C)C)NC(=O)[C@@H](NC(=O)[C@H](CO)NC(=O)[C@H](Cc1ccc(O)cc1)NC(=O)[C@H](CC(=O)O)NC(=O)[C@H](CO)NC(=O)[C@@H](NC(=O)[C@](C)(Cc1ccccc1F)NC(=O)[C@@H](NC(=O)CNC(=O)[C@H](CCC(=O)O)NC(=O)C(C)(C)NC(=O)[C@@H](N)Cc1ccc(O)cc1)[C@@H](C)O)[C@@H](C)O)[C@@H](C)CC)[C@@H](C)CC)C(=O)N[C@@H](CCC(=O)O)C(=O)NCC(=O)NCC(=O)N1CCC[C@H]1C(=O)N[C@@H](CO)C(=O)N[C@@H](CO)C(=O)NCC(=O)N[C@@H](C)C(=O)N1CCC[C@H]1C(=O)N1CCC[C@H]1C(=O)N1CCC[C@H]1C(=O)N[C@@H](CO)C(=O)N[C@@H](CS)C(N)=O` [Example 283] (H-Y[Aib]EGT[αMePhe(2-F)]TSDYSI[αMeL]LD[Orn]QAQ[Aib]EFI[dE]YLIEGGPSSGAPPPSC-NH2), in that order: 0.155 nM and 0.301 nM.
